What is called IC50 is the midpoint of a concentration-inhibition curve.

The target of this assay is DNA-PK (Homo sapiens, UniProt P78527). Briefly: radiation-induced phospho-DNA-PK Ser2056 in MCF7 cells, Western blot. Also on record: endogenous in cells; host or cells: MCF7. Conditions: 1 h pretreatment, 30 min after 10 Gy IR, read-out: IC50, radiation-induced activation of DNA-PK (phospho–DNA-PK Ser2056). Format: cell-based. As for the experimental part:
Exponentially growing MCF7 cells were exposed to a range of concentrations of NU5455 and NU7441 (0.03–10 μM) for 1 hour. To assess the ability of NU5455 and NU7441 to inhibit autophosphorylation of DNA-PKcs at Ser2056, cells were treated with 10 Gy irradiation and incubated for 30 minutes. Alternatively, to investigate the effects of NU5455 and NU7441 against PI3K-dependent phosphorylation of AKT at Ser473, cells were treated with 50 ng/mL insulin-like growth factor-1 (IGF-1; Invitrogen) for 30 minutes. Cell lysates were prepared for the detection of p–DNA-PKcs Ser2056 and total DNA-PKcs, or p–AKT Ser473 and total AKT, respectively, using Western blotting. […]
Protein lysates were quantified using the Pierce BCA Protein Assay (ThermoFisher). […]
Membranes were then washed in TBST and incubated with HRP-conjugated goat anti-mouse or anti-rabbit antibodies (P0447 and P0448 respectively, Dako) in 5% (w/v) milk/TBST at room temperature for 1-2 hours. Conjugates were detected using Clarity Western ECL Substrate (BioRad) and chemiluminescence imaged using the Fuji LAS-3000 Luminescent Image Analyzer System (Fujifilm). […]
Alternatively, basal pAKT Ser473 levels were subtracted from all other pAKT bands, and pAKT band intensity calculated relative to total AKT expression and given as a percentage relative to IGF-1 stimulated, DMSO-treated cells. […]
(In general: In western blotting, separated proteins are transferred to a membrane and probed.)

As for `CN(C(=O)CN1CCOCC1)c1ccc2sc3c(-c4cccc5c(=O)cc(N6CC7CCC(C6)O7)oc45)cccc3c2c1` [NU5455], the IC50 came to 0.168 µM.

Values taken from publication PMC6934184, “Selective DNA-PKcs inhibition extends the therapeutic index of localized radiotherapy and chemotherapy” (The Journal of Clinical Investigation, 2019).
